US7291469B2, “Mutant met and uses therefor” (The Regents of the University of California, priority 2004, dated 2007)

How the values were obtained:
Met gene expression = Met gene expression by semi-quantitative RT-PCR under hypoxia mimic; assay type: cell-based; settings: two canine OSA cell lines
Text: To evaluate the effects of hypoxia on Met gene expression, we cultured two different canine OSA cell lines in the presence of cobalt chloride, an agent that mimics hypoxia. […] Given the substantial data indicating a role of Met in a variety of human cancers, it is likely that dysregulation of Met will play a similar role in canine cancers.

canine OSA cells = experiment: Scattering and migration of canine OSA cells under growth factor deprivation with HGF; assay type: cell-based; settings: medium without fetal bovine serum, HGF added
Text: To evaluate the ability of OSA cells to scatter and migrate, we cultured cells in medium containing fetal bovine serum or no fetal bovine serum (stressful condition), then stimulated with HGF. The OSA cells began to show evidence of morphology change (scattering) upon growth factor deprivation.

[1] = system: NIH-3T3 cells stably transfected with canine Met constructs; experiment: Gap migration assay in NIH-3T3 cells stably transfected with canine Met constructs; assay type: cell-based; settings: R988C, M1251T, D544N, G966S Met lines; 50 ng/ml; 24 hours
Protocol: Cells were allowed to grow to confluence in tissue culture, then defects were created manually to create a “gap” in the cells. The cells were then left in medium alone or treated with recombinant human HGF (rhHGF) at 50 ng/ml. Cells were also treated with a Met inhibitor in the absence or presence of rhHGF. Cultures were evaluated 24 hours later by staining the cells with crystal violet and digital imaging.

Gab-1, Erk1/2, and Akt = experiment: Phosphorylation of downstream signal transduction components Gab-1, Erk1/2 and Akt after rhHGF stimulation; assay type: cell-based, canine
Text: The activation of downstream signal transduction components Gab-1, Erk1/2, and Akt were then examined. […] It is possible that in these cases, other growth factor pathways contribute to this high level of basal phosphorylation.

canine Met = experiment: Met phosphorylation in canine tumor cell lines after rhHGF stimulation; assay type: cell-based
Protocol: It is possible that this mutation results in the basal phosphorylation of Met in this cell line.
To determine whether HGF stimulation of canine Met induces appropriate Met autophosphorylation and downstream signal transduction, Met expressing tumor cell lines were treated with recombinant human HGF and the phosphorylation of Met on several specific tyrosines as well as phosphorylation of downstream signaling components were evaluated. […] It was then necessary to determine whether all critical tyrosine residues were phosphorylated after rhHGF exposure, as it was possible that the recombinant human protein was only inducing partial or incomplete signal transduction. […] Although this could be attributed to autocrine HGF and HGFA production, the D17 cell line also has the D544N mutation.

Chain of canine Met (Q75ZY9 25-308 limits assumed): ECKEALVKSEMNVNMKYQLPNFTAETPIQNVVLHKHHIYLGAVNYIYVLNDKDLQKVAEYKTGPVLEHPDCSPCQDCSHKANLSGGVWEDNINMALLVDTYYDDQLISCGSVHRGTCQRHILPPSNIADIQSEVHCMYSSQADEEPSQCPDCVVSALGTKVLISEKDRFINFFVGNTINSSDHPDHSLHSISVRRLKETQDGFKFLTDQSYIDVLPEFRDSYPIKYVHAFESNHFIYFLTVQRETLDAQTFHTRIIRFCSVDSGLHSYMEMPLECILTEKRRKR
Chain of canine Met (Q75ZY9 309-516 limits assumed): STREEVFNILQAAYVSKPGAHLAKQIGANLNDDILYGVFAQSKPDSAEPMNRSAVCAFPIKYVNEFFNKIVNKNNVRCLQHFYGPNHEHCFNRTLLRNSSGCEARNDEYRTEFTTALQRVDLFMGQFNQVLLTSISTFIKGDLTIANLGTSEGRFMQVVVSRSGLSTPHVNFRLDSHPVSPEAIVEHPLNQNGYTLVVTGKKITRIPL

Compound	Met gene expression (Met gene expression)	morphology change (scattering) (canine OSA cells)	migration compared to NIH-3T3 expressing wild-type Met [1]	Erk and Akt phosphorylation (Gab-1, Erk1/2, and Akt; Mel 3 and Mel 8 cell lines)	Gab-1 phosphorylation (Gab-1, Erk1/2, and Akt; each of the canine cell lines tested)	phosphorylation of Met tyrosines 1003, 1230/34/35, 1349 and 1365 (canine Met; OSA8 canine OSA cell line)	concentration of maximal stimulation of Met phosphorylation (canine Met; canine OSA cell lines)	phosphorylation of canine Met (canine Met; canine OSA cell lines)
[Cl][Co][Cl] [cobalt chloride]	upregulation of Met gene expression	–	–	–	–	–	–	–
rhHGF: recombinant human hepatocyte growth factor, the ligand for Met	–	further enhanced	markedly increased	inducible Erk and Akt phosphorylation	Gab-1 was phosphorylated	all phosphorylated appropriately	50 ng/mL	induced phosphorylation of canine Met in all cell lines tested in a dose dependent fashion
